According to PMC4580987, “Catalytic site inhibition of insulin-degrading enzyme by a small molecule induces glucose intolerance in mice” (Nature Communications, 2015):
Where “and” joins values, the source holds several entries; their conditions need not be identical. Equal values may be shown once. Entries after “also recorded” stand apart in the source; their conditions may differ.

Key:
[1] = Pharmacokinetics in mice, intraperitoneal; type: in vivo; conditions: C57Bl6/N, mouse, plasma, 30 mg kg^−1, ip, male mice
Description: Three mice per time point were anesthetized with isoflurane and aliquots taken from the retroorbital sinus using sampling heparinated tubes (4 °C) at 10, 20, 30 min, 1, 2 and 4 h after administration of a single dose of ligands. The blood samples were centrifuged (5,000g, 15 min) for plasma separation. Plasma samples were thawed on ice. Aliquots of 50 μl were precipitated with 450 μl of ice-cold acetonitrile containing (R)-N-[3-(1-Hydroxycarbamoylmethyl-2-naphthalen-2-yl-ethyl)-3H-[1,2,3]triazol-4-ylmethyl]-benzamide (0.5 μM) used as internal standard. The samples were vigorously mixed with a vortex and centrifuged at 10,000 r.p.m. at 4 °C for 10 min, and the supernatants were transferred into tubes for LC−MS−MS analysis (Supplementary Table 2). Spiked standard solutions (10, 50, 100, 500, 1,000, 5,000, 10,000 and 50,000 nM) were prepared the same way. The protocol was approved by the ethical comitee CEEA Nord Pas de Calais (CEEA75).

Recombinant human MMP-1 = target: T1, Recombinant human MMP-1 (Homo sapiens, UniProt P03956); test: Matrix metalloprotease 1 inhibition (CEREP); type: biochemical; conditions: means of two experiments minimum, s.d.±10%; read-out: Selectivity IC50 hMMP-1
T1 construct: host or cells: E. coli
T1 sequence (P03956 100-469): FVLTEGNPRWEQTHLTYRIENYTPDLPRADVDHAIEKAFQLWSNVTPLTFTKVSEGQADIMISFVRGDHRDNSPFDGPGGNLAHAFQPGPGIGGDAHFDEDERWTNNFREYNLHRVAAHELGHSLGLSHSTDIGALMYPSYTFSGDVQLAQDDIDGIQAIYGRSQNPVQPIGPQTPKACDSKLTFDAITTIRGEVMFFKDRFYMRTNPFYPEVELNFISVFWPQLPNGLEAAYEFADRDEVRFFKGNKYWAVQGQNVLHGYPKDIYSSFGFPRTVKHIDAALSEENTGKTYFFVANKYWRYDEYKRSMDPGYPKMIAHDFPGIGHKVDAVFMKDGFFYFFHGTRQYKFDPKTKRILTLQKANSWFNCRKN
Description: Briefly, human NEP (R&D Systems; 200 ng ml^−1) was incubated 10 min at room temperature with compound in Hepes 50 mM, NaCl 100 mM, pH 7.4 and the enzymatic reaction started by adding the substrate (final concentration 200 μM). […] Briefly, human ACE (R&D Systems) was incubated 10 min at room temperature with compound in Tris 50 mM 1% NaCl pH 7.4 and the enzymatic reaction is started by adding the substrate (final concentration 300 μM). […] In vitro activity was assayed at CEREP.SA as follows.

Caco-2 permeation assay = type: in vitro ADME; conditions: human, 37 °C, pH 7.4/7.4
From the text: Caco-2 cells were provided by ATCC and checked for mycoplasma contamination. These cells are not listed by ICLAC as misidentified cell lines (October 3rd, 2014). A total of 0.4 × 10^5 Caco-2 cells (ATCC no. […] The paracellular barrier characteristics of Caco-2 cells monolayer was monitored using (i) measurement of […] and (ii) measurement of the permeability to the non-permeant fluorescent molecule, Lucifer Yellow. Caco-2 cells were trypsinized after 3 days of incubation while they cover 80–90% of the flask and seeded at a density of 5 × 10^5 in 75 cm^2 flasks in complete medium supplemented with 73 nM (∼0.04 μg ml^−1) of the antibacterial puromycin (3′-[α-amino-p-methoxyhydrocinnamamido]-3′-deoxy-N,Ndimethyladenosine dihydrochloride). After 5–6 days, Caco-2 cells reach high cells density (>0.5 × 10^5 cells per cm^2) and are then passage into cell HTS 24-well plates with 0.4 μm polycarbonate membrane inserts. Cells were seeded at 600,000 cells per cm^2 (200,000 cells per insert) and cultivated for 6 days in complete medium with puromycin. Media was replaced every second days. Compound solutions were prepared in HEPES-buffered Ringerŕs (RH) solution (NaCl 150 mM, KCl 5.2 mM, CaCl2 2.2 mM, MgCl2 0.2 mM, NaHCO3 6 mM, Glucose 2.8 mM, HEPES 5 mM, water for injection), pH=7.4 at a final concentration of 1 or 10 μM for tested drugs. For A→B transport experiment, 0.2 ml of the compound solution was placed on the apical side of the cells and samples were taken from the basolateral compartment. For B→A transport experiment 0.8 ml of the solution was placed on the basolateral side of the cells and samples were taken from apical side. Transport Studies were done in Transwell polycarbonate: HTS 24-well plate inserts (surface area: 0.33 cm^2–0.4 μm pore size). Cells were equilibrated for 10 min in transport buffer prior to the transport experiment, and then incubations with compounds were performed at 37 °C under agitation. After 1 h aliquots were taken from each compartment and sampled in 96-well plates with glass insert. Permeation and the % of recovery are calculated using the formulas below: […]

C57BL/6J mice = test: Insulin tolerance test (ITT); type: in vivo, mouse; conditions: 50 mg kg^−1 ip
Description: AUC for ITT were calculated to evaluate insulin sensitivity. Blood glucose levels were determined using an Accu-Check glucometer (Roche Diagnostics). […] The protocol was approved by the ethical comitee CEEA Nord Pas de Calais (CEEA75).

Microsomal stability = type: in vitro ADME; conditions: male, CD-1, pH 7.4, mouse liver microsomes, read-out: Microsomal stability m (t1/2)
Description: Male mouse (CD-1) liver microsomes (BD Gentest) were used. All incubations were performed in duplicate in a shaking water bath at 37 °C. The incubation mixtures contained 1 μM compound with 1% methanol used as a vehicle, mouse liver microsomes (0.6 mg of microsomal protein per mL), 5 mM MgCl2, 1 mM NADP, 5 mM glucose 6-phosphate, 0.4 U ml^−1 glucose 6-phosphate dehydrogenase, and 50 mM potassium phosphate buffer (pH 7.4) in a final volume of 1.5 ml. Samples were taken at 5, 10, 20, 30 and 40 min after microsome addition, and reactions stopped by adding ice-cold acetonitrile containing 1 μM internal standard (four volumes). Centrifugation of the samples for 10 min at 10,000g and 4 °C allowed to pellet precipitated microsomal proteins, and supernatant was subjected LC−MS/MS analysis, in acetonitrile containing 1 μM internal standard. Each compound was quantified by converting the corresponding analyte/internal standard peak area ratios to percentage drug remaining, using the initial ratio values in control incubations as 100%. Propranolol, known as a high hepatic clearance drug in rodents, was used as a quality-control compound for the microsomal incubations. […] The slope of the linear regression from log percentage remaining versus incubation time relationships (-k) was used in the conversion to in vitro t1/2 values by: t1/2=−0.693/k.

Question: With `O=C(C[C@@H](Cc1ccc2ccccc2c1)n1cc(CNC(=O)c2ccc(F)cc2)nn1)NO` [Compound 1] as the compound, how does the Tmax [1] read?
Answer: 10 min

Question: What about the half-life [1] of the same compound?
Answer: 80 min

Question: And the AUC(0-t) ([1]; read-out: AUC0→4h)?
Answer: 4270 ng·h/mL

Question: And the Cmax ([1]; DMSO solution)?
Answer: 4100 ng/mL and 9.2 µM

Question: And the IC50 (Recombinant human MMP-1)?
Answer: 10 µM

Question: And the Papp A→B at 1 h, 1 μM (Caco-2 permeation assay; Caco-2, A→B, 1 μM)?
Answer: 3.3 ×10⁻⁶ cm/s

Question: And the Papp A→B at 1 h, 10 μM (Caco-2 permeation assay; Caco-2, A→B, 10 μM)?
Answer: 2.4 ×10⁻⁶ cm/s

Question: And the Papp B→A at 1 h, 1 μM (Caco-2 permeation assay; Caco-2, B→A, 1 μM)?
Answer: 19 ×10⁻⁶ cm/s

Question: What about the Papp B→A at 1 h, 10 μM (Caco-2 permeation assay; Caco-2, B→A, 10 μM) of the same compound?
Answer: 17 ×10⁻⁶ cm/s

Question: What about the “serum insulin concentrations during ITT” value (C57BL/6J mice; 0.75 U kg^−1 insulin, significant at 30 min) of the same compound?
Answer: slightly increased

Question: What about the “glucose lowering effect of insulin during ITT” value (C57BL/6J mice; 30 and 60 min) of the same compound?
Answer: Augments insulin action in vivo; also recorded: tended to enhance

Question: What about the half-life at 1 μM (Microsomal stability) of the same compound?
Answer: 20 min
